Reference: BindingDB's records for patent US8623892 (Viamet Pharmaceuticals, 2014)

Target: T1, Steroid 17-alpha-hydroxylase/17,20 lyase (Rattus norvegicus, UniProt P11715)
T1 sequence (P11715 whole entry): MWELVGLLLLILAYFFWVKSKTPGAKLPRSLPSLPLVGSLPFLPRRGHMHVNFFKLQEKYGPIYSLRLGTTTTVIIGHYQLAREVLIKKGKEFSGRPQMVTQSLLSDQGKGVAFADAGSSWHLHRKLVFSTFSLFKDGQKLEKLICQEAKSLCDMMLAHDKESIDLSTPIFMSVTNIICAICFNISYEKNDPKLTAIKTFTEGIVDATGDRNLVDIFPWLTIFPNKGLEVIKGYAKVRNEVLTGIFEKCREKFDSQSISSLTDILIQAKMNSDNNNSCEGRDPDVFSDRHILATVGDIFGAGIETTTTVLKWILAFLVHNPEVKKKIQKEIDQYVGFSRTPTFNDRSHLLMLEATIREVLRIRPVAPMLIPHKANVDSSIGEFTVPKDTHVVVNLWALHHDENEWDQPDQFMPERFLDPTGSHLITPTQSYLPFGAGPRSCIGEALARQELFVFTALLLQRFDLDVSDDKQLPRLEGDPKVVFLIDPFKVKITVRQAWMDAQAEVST
Assay: Inhibition Assay
From the text: If a weakly binding metal-binding group is utilized, potency may be suboptimal. On the other hand, if a very tightly binding metal-binding group is utilized, selectivity for the target enzyme versus related metalloenzymes may be suboptimal. The lack of optimal selectivity can be a cause for clinical toxicity due to unintended inhibition of these off-target metalloenzymes. […] It is believed that this off-target inhibition is caused primarily by the indiscriminate binding of the currently utilized 1-imidazole to iron in the active site of CYP2C9, CYP2C19 and CYP3A4.

CC(C)C(O)(c1ccc2cc(OC(F)F)c(OC(F)F)cc2c1)c1c[nH]nn1 (stereo unspecified) [US8623892, 3]
IC50: 220 nM
